From ChEMBL document CHEMBL5241066, “Research progress of MEK1/2 inhibitors and degraders in the treatment of cancer” (Eur J Med Chem, 2021)

Test system: KE-37
Assay: Anticancer activity against human KE-37 cells assessed as reduction in cell viability
Type: functional, cell-based

Question: For `C=CCc1cccc(/C=N/NC(=O)CN2CCN(Cc3ccccc3)CC2)c1O` [PAC-1], which IC50 is on record?
Answer: The IC50 was 242 nM.
